The source of these data is patent US7179823B1, “5-membered n-heterocyclic compounds with hypoglycemic and hypolipidemic activity” (Takeda Pharmaceutical Company Limited, priority 1999, dated 2007).

For the compound `CCOc1nn(Cc2ccc(OCc3nc(-c4ccccc4)ccc3Cl)cc2)cc1CCC(=O)O` [Example 244, 3-[1-[4-(3-chloro-6-phenyl-2-pyridylmethoxy)benzyl]-3-ethoxy-1H-pyrazol-4-yl]propionic acid], the melting point lay in the range of 120 to 121 °C.
In turn, `O=C(O)CCc1cn(Cc2ccc(OCc3ccc(-c4ccccc4)cn3)cc2)nc1-c1ccccc1` [Example 302, 3-[3-phenyl-1-[4-(5-phenyl-2-pyridylmethoxy)benzyl]-1H-pyrazol-4-yl]propionic acid] yielded a melting point of 149 to 150 °C.
The compound `CCOC(=O)CCc1cn(Cc2ccc(OCc3cn4c(Cl)cccc4n3)cc2)nc1OCC` [Example 224, ethyl 3-[1-[4-(5-chloroimidazo[1,2-a]pyridin-2-ylmethoxy)benzyl]-3-ethoxy-1H-pyrazol-4-yl]propionate] returned a melting point of 69 to 70 °C.
As for `Cc1oc(-c2ccccc2)nc1COc1ccc(CCn2cc(CCC(=O)O)c(-c3ccccc3)n2)cc1` [Example 116, 3-[1-[2-[4-(5-methyl-2-phenyl-4-oxazolylmethoxy)phenyl]ethyl]-3-phenyl-1H-pyrazol-4-yl]propionic acid], the melting point fell in the range of 85 to 86 °C.
Turning to `O=C(O)CCc1cn(Cc2ccc(OCc3csc(-c4ccccn4)n3)cc2)cc1-c1ccccc1` [Example 32, 3-[4-phenyl-1-[4-[2-(2-pyridyl)-4-thiazolylmethoxy)benzyl]-3-pyrrolyl]propionic acid], the melting point was in the range of 117 to 118 °C.
In the case of `CCOc1nn(Cc2ccc(OCc3cn4c(OCC)cccc4n3)cc2)cc1CCC(=O)O` [Example 227, 3-[3-ethoxy-1-[4-(5-ethoxyimidazo[1,2-a]pyridin-2-ylmethoxy)benzyl]-1H-pyrazol-4-yl]propionic acid], the melting point fell in the range of 197 to 198 °C.
Under `Cc1oc(-c2ccccc2)nc1CCOc1ccc(Cn2cc(CC(=O)O)c(-c3ccccc3)n2)cn1` [Example 314, [1-[6-[2-(5-methyl-2-phenyl-4-oxazolyl)ethoxy]-3-pyridylmethyl]-3-phenyl-1H-pyrazol-4-yl]acetic acid] stands 148 to 149 °C; under `O=C(O)CCc1cn(Cc2ccc(OCc3ccoc3)cc2)cc1-c1ccccc1` [Example 18, 3-[1-[4-(3-furylmethoxy)benzyl]-4-phenyl-3-pyrrolyl]propionic acid], 110 to 111 °C; under `Cc1oc(-c2ccccc2)nc1CCOc1ccc(Cn2cc(CCC(=O)O)c(-c3ccccc3)c2)cc1` [Example 14, 3-[1-[4-[2-(5-methyl-2-phenyl-4-oxazolyl)ethoxy]benzyl]-4-phenyl-3-pyrrolyl]propionic acid], 147 to 148 °C.
Under `O=C(O)c1cn(Cc2ccc(OCc3ccccc3)cc2)nc1-c1ccccc1` [Example 92, 1-(4-benzyloxybenzyl)-3-phenyl-1H-pyrazol-4-carboxylic acid] stands 152 to 153 °C.
`Cc1oc(-c2ccccc2)nc1COc1ccc(Cn2cc(C(=O)O)c(-c3ccccc3)n2)cc1` [Example 93, 1-[4-(5-methyl-2 phenyl-4-oxazolylmethoxy)benzyl]-3-phenyl-1H-pyrazol-4-carboxylic acid] gave a melting point of 165 to 166 °C.
`O=C(O)CCc1cn(Cc2ccc(OCc3csc(-c4ccccc4)n3)nc2)nc1-c1ccccc1` [Example 300, 3-[3-phenyl-1-[6-(2-phenyl-4-thiazolylmethoxy)-3-pyridylmethyl]-1H-pyrazol-4-yl]propionic acid] registered a melting point of 107 to 108 °C.
With `CCOC(=O)CCc1cn(Cc2cc(OCc3nc(-c4ccccc4)oc3C)no2)nc1OCC` [Example 218, ethyl 3-[3-ethoxy-1-[3-(5-methyl-2-phenyl-4-oxazolylmethoxy)-5-isoxazolylmethyl]-1H-pyrazol-4-yl]propionate], the melting point was in the range of 82 to 83 °C.
The figure for `CCOc1nn(Cc2ccc(OCc3cncc(-c4ccccc4)c3)cc2)cc1CCC(=O)O` [Example 240, 3-[3-ethoxy-1-[4-(5-phenyl-3-pyridylmethoxy)benzyl]-1H-pyrazol-4-yl]propionic acid] is 92 to 93 °C.
`CCOC(=O)c1cn(Cc2ccc(Oc3ccccc3)cc2)nc1OCc1ccc(OCc2nc(-c3ccccc3)oc2C)c(OC)c1` [Example 324, ethyl 3-[3-methoxy-4-(5-methyl-2-phenyl-4-oxazolylmethoxy)benzyloxy]-1-(4-phenoxybenzyl)-1H-pyrazole-4-carboxylate] returned a melting point of 127 to 128 °C.
The figure for `Cc1oc(-c2ccccc2)nc1COc1ccc(Cn2cc(/C=C/C(=O)O)c(-c3ccccc3)c2)cc1` [Example 5, (E)-3-[1-[4-(5-methyl-2-phenyl-4-oxazolylmethoxy)benzyl]-4-phenyl-3-pyrrolyl]propenoic acid] is 154 to 155 °C; for `CCOC(=O)CCc1cn(Cc2ccc(OCc3cn4c(-c5ccccc5)cccc4n3)cc2)nc1OCC` [Example 231, ethyl 3-[3-ethoxy-1-[4-(5-phenylimidazo[1,2-a]pyridin-2-ylmethoxy)benzyl]-1H-pyrazol-4-yl]propionate] it is 104 to 105 °C; for `O=C(O)CCc1cn(Cc2ccc(OCc3ccc(-c4ccccc4)cn3)cc2)cc1-c1ccccc1` [Example 279, 3-[1-[4-(5-phenyl-2-pyridylmethoxy)benzyl]-4-phenyl-3-pyrrolyl]propionic acid] it is 169 to 170 °C.
The compound `O=C(O)CCc1cn(Cc2ccc(OCc3ccccn3)cc2)cc1-c1ccccc1` [Example 11, 3-[4-phenyl-1-[4-(2-pyridylmethoxy)benzyl]-3-pyrrolyl]propionic acid] gave a melting point of 109 to 110 °C.
`Cc1oc(-c2ccccc2)nc1COc1ccc(Cn2cc(C(=O)O)c(C(C)C)n2)cc1` [Example 106, 3-isopropyl-1-[4-(5-methyl-2-phenyl-4-oxazolylmethoxy)benzyl]-1H-pyrazol-4-carboxylic acid] registered a melting point of 194 to 195 °C.
Under `O=C(O)CCc1cn(Cc2ccc(OCc3cncc(-c4ccccc4)c3)cc2)nc1-c1ccccc1` [Example 290, 3-[3-phenyl-1-[4-(5-phenyl-3-pyridylmethoxy)benzyl]-1H-pyrazol-4-yl]propionic acid] stands 161 to 162 °C; under `O=C(O)CCc1cn(Cc2ccc(OCCn3ncc4ccccc4c3=O)cc2)nc1-c1ccccc1` [Example 286, 3-[1-[4-[2-[1-oxophthalazin-2(1H)-yl]ethoxy]benzyl]-3-phenyl-1H-pyrazol-4-yl]propionic acid], 155 to 156 °C.
Consider `CCOc1nn(Cc2ccc(OCc3ccc4ccccc4n3)cc2)cc1CCC(=O)O` [Example 209, 3-[3-ethoxy-1-[4-(2-quinolylmethoxy)benzyl]-1H-pyrazol-4-yl]propionic acid], for which the melting point fell in the range of 140 to 141 °C.
Under `O=C(O)CCc1cn(Cc2ccc(OCc3ccncc3)cc2)cc1-c1ccccc1` [Example 13, 3-[4-phenyl-1-[4-(4-pyridylmethoxy)benzyl]-3-pyrrolyl]propionic acid] stands 124 to 125 °C; under `CCOc1nn(Cc2ccc(OCn3nnc4ccccc43)cc2)cc1CCC(=O)O` [Example 229, 3-[1-[4-(1H-benzotriazol-1-ylmethoxy)benzyl]-3-ethoxy-1H-pyrazol-4-yl]propionic acid], 136 to 137 °C; under `CCOc1nn(Cc2ccc(OCc3nc4ccccc4n3C)cc2)cc1CCC(=O)O` [Example 248, 3-[3-ethoxy-1-[4-(1-methyl-1H-benzimidazol-2-ylmethoxy)benzyl]-1H-pyrazol-4-yl]propionic acid], 177 to 178 °C.
The compound `Cc1ncccc1COc1ccc(Cn2cc(CCC(=O)O)c(-c3ccccc3)c2)cc1` [Example 26, 3-[1-[4-(2-methyl-3-pyridylmethoxy)benzyl]-4-phenyl-3-pyrrolyl]propionic acid] gave a melting point of 158 to 159 °C.
In turn, `CCOC(=O)Cc1cn(Cc2ccc(OCc3csc(-c4ccccc4)n3)nc2)nc1-c1ccccc1` [Example 309, ethyl(3-phenyl-1-[6-(2-phenyl-4-thiazolylmethoxy)-3-pyridylmethyl]-1H-pyrazol-4-yl]acetate] displayed a melting point of 75 to 76 °C.
Under `Cc1oc(-c2ccco2)nc1COc1ccc(Cn2cc(CC(=O)O)c(-c3ccccc3)n2)cn1` [Example 316, [1-[6-[2-(2-furyl)-5-methyl-4-oxazolylmethoxy]-3-pyridylmethyl]-3-phenyl-1H-pyrazol-4-yl]acetic acid] stands 135 to 136 °C; under `O=C(O)CCc1cn(Cc2ccc(OCc3cccc(-c4cnccn4)c3)cc2)cc1-c1ccccc1` [Example 36, 3-[4-phenyl-1-[4-[3-(2-pyrazinyl)benzyloxy]benzyl]-3-pyrrolyl]propionic acid], 91 to 92 °C; under `CCOc1cc(Cn2cc(CCC(=O)O)c(-c3ccccc3)c2)cc(OCc2nc(-c3ccccc3)oc2C)c1` [Example 272, 3-[1-[3-ethoxy-5-(5-methyl-2-phenyl-4-oxazolylmethoxy)benzyl]-4-phenyl-3-pyrrolyl]propionic acid], 126 to 127 °C.
For the compound `CCOc1nn(Cc2ccnc(OCc3cn4c(-c5ccccc5)cccc4n3)c2)cc1CCC(=O)O` [Example 238, 3-[3-ethoxy-1-[2-(5-phenylimidazo[1,2-a]pyridin-2-ylmethoxy)-4-pyridylmethyl]-1H-pyrazol-4-yl]propionic acid], the melting point fell in the range of 177 to 178 °C.
The compound `CCOc1nn(Cc2cc(OCc3nc(-c4ccccc4)oc3C)no2)cc1CCC(=O)O` [Example 219, 3-[3-ethoxy-1-[3-(5-methyl-2-phenyl-4-oxazolylmethoxy)-5-isoxazolylmethyl]-1H-pyrazol-4-yl]propionic acid] returned a melting point of 142 to 143 °C.
For the compound `Cc1oc(-c2ccccc2)nc1COc1nn(Cc2ccc(Oc3ccccc3)cc2)cc1C(=O)O` [Example 330, 3-(5-methyl-2-phenyl-4-oxazolylmethoxy)-1-(4-phenoxybenzyl)-1H-pyrazole-4-carboxylic acid], the melting point was 222 to 223 °C.
The figure for `Cc1oc(-c2ccccc2)nc1COc1nn(Cc2ccc(Oc3ccccc3)cc2)cc1/C=C/C(=O)O` [Example 333, (E)-3-[3-(5-methyl-2-phenyl-4-oxazolylmethoxy)-1-(4-phenoxybenzyl)-1H-pyrazol-4-yl]propenoic acid] is 210 to 211 °C.

A word on the melting point: it is the temperature, or range, at which the solid turns liquid.
